One test concerns the target Cytochrome P450 2C9 (Homo sapiens, UniProt P11712).
A further test deals with Cytochrome P450 2C19 (Homo sapiens, UniProt P33261). The test is described as follows: Cytochrome panel assay with activity outcomes. Panel member name: p450-cyp2c19 Compounds with AC50 equal or less than 10 uM are considered active. It is filed as functional. Conditions: read-out: AC50.
A further test deals with T1, Cytochrome P450 1A2 (Homo sapiens, UniProt P05177).
T1 sequence (P05177 whole entry): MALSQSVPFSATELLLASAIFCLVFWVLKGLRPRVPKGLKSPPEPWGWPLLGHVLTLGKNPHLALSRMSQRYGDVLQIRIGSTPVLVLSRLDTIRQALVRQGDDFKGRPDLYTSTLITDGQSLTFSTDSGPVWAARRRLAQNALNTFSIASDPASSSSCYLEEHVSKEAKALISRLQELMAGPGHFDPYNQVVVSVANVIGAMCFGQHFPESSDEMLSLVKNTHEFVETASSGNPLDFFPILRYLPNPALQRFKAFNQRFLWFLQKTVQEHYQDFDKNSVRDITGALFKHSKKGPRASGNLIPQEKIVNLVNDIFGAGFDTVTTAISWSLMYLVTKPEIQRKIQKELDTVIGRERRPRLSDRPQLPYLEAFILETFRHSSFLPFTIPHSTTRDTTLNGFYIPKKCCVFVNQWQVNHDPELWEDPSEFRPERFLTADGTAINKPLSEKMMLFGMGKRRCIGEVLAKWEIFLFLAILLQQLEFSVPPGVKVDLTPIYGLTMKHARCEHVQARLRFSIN

The test system of the next test is H4. As to the kind of experiment: Luminescence Cell-Based Dose Response HTS to Identify Activators of 5'UTR Stem-Loop Driven Prion Protein mRNA Translation in H4 Neuroglioblastoma Cells. [Related pubchem assays: 1829 (Project Summary), 1814 (Primary HTS)]. The note with it: Homo sapiens. It is filed as functional.
Test [1] in a line: Luminescence Cell-Based Dose Response HTS to Identify Activators of Luciferase Translation or Activity in H4 […] Cells. [Related pubchem assays: 1829 (Project Summary), 1814 (Primary HTS)]. It is filed as functional.
The nature of test [2]: Luminescence Cell-Based Dose Confirmation HTS to Identify Activators of 5'UTR Stem-Loop Driven Alpha-Synuclein mRNA Translation in H4 Neuroglioblastoma Cells. [Related pubchem assays: 1829 (Project Summary), 1814 (Primary HTS)]. It is filed as functional.
The target of another test is Cytochrome P450 3A4 (Homo sapiens, UniProt P08684).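 Note: CYP3A4 tested as one member of a cytochrome P450 panel screen.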
Cytochrome P450 3A4, sequence (P08684 whole entry): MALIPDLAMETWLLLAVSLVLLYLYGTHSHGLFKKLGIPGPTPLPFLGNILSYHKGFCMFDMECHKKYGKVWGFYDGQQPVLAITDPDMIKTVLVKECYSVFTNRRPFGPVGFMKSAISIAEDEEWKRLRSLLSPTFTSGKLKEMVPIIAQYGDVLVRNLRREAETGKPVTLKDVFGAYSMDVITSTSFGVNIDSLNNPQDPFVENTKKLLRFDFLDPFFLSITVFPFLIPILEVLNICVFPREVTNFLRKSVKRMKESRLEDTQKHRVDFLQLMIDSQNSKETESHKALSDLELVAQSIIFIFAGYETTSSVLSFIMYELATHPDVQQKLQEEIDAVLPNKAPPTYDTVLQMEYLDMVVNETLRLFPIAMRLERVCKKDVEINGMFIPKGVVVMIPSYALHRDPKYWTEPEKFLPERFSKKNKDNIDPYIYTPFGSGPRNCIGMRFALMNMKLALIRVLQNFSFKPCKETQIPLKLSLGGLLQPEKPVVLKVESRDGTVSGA
The target of test [3] is T2, Heat shock factor protein 1 (Mus musculus, UniProt P38532).
T2 sequence (P38532 whole entry): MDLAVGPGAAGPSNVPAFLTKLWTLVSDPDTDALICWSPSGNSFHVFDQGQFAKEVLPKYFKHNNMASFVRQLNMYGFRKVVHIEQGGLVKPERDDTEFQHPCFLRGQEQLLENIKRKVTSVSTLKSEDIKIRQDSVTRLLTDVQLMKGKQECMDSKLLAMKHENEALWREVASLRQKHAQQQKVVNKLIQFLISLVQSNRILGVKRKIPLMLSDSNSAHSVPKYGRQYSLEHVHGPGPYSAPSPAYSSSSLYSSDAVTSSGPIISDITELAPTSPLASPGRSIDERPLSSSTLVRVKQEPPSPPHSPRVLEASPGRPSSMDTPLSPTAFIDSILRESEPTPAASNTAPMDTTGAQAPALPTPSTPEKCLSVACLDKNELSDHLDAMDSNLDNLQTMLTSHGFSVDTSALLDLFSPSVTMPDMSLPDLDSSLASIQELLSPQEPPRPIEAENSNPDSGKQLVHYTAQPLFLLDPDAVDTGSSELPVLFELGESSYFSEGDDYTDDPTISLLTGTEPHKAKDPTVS
The test is described as follows: decrease of HSF1-responsive luciferase luminescence – cell-based, NIH3T3, dose retest, confirmation (AID 2382).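 Note: NIH3T3 fibroblasts with HSF1-driven luciferase reporter stressed by proteasome inhibitor MG132; luminescence from HSF1-driven luciferase expression after 8 hours of MG132 stress.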 It is filed as functional.

Activity calls are given as the source filed them. Some results are limits rather than exact numbers.

Cytochrome P450 2C19, sequence (P33261 whole entry): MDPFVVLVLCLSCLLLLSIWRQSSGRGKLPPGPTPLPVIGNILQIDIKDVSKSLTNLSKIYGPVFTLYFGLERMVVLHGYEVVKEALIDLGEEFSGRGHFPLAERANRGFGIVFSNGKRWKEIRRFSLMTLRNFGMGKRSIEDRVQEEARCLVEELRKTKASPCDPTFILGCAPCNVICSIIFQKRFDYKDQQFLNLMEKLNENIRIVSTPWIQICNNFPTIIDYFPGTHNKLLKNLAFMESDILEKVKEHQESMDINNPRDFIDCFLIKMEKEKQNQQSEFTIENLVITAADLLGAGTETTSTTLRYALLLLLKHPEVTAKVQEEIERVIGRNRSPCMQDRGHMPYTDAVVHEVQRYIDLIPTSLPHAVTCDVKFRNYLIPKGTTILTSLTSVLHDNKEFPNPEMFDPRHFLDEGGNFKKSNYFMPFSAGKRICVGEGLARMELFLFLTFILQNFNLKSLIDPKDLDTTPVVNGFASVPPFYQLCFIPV
Cytochrome P450 2C9, sequence (P11712 whole entry): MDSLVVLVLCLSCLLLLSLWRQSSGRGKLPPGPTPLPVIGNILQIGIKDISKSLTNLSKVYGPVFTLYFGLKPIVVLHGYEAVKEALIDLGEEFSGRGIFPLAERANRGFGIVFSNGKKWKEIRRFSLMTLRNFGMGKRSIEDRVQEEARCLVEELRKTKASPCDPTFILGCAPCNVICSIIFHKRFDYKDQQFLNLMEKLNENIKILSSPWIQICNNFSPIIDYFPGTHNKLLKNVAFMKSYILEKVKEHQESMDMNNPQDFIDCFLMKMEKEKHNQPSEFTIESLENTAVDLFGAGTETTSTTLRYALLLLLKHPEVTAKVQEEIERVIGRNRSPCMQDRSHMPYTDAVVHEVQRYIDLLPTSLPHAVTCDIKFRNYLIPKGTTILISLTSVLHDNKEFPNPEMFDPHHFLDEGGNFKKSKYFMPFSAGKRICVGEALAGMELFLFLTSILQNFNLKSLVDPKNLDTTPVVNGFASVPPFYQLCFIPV

Take `CCCC[C@H]1C(=O)N(c2ccccc2)N(c2ccc(O)cc2)C1=O`: the AC50 at Cytochrome P450 2C9 was 12.6 µM (inconclusive); at Cytochrome P450 2C19, 15.8 µM (inconclusive); at Cytochrome P450 1A2, 0.001 µM (inconclusive).
For the molecule `CC(=O)C1=NOC(CNc2ncc(C(F)(F)F)cc2Cl)C1` (stereo not given), the EC50 in the test with H4 was 16.2 µM (active); in test [1], 17 µM (active); in test [2] it was 15.7 µM (active).
With `CCSc1c(C(=O)NC)ccc2c1C(=O)c1ccccc1C2=O`, the AC50 on Cytochrome P450 2C9 is 10 µM (inconclusive); at Cytochrome P450 3A4, 12.6 µM (inconclusive); at Cytochrome P450 2C19 it was 28.2 µM (inconclusive).
With `CC(O)(CS(=O)(=O)c1ccccc1)C(=O)Nc1cccc(C(F)(F)F)c1` (stereo not given), on Cytochrome P450 2C9, the AC50 is 35.5 µM (inconclusive).
Consider `CN(C)c1ncc2nc(-c3ccccc3)c(=O)n(Cc3cccs3)c2n1`, for which the AC50 was 10 µM (inconclusive) on Cytochrome P450 2C9 and 15.8 µM (inconclusive) at Cytochrome P450 3A4.
Take `COc1ccc(N2CCN(Cc3nc4c(c(=O)[nH]c(=O)n4C)n3CCCc3ccccc3)CC2)cc1`: the results for the AC50 on Cytochrome P450 2C9 and at Cytochrome P450 2C19 were 39.8 µM (inconclusive) and 28.2 µM (inconclusive), respectively.
Regarding `COC(=O)CSC1=C(C#N)C(c2cccc(F)c2)CC(=O)N1` (stereo not given), the AC50 on Cytochrome P450 2C9 was 0.0282 µM (inconclusive); on Cytochrome P450 3A4, 39.8 µM (inconclusive).
Take `COc1ccc(Oc2ncc3nc(C)c(=O)n(-c4ccc(OC)cc4)c3n2)cc1`: the AC50 on Cytochrome P450 2C9 is 39.8 µM (inconclusive).
For `Cn1c(=O)cnc2cnc(Nc3ccccc3)nc21`, the AC50 at Cytochrome P450 2C9 is 25.1 µM (inconclusive); at Cytochrome P450 3A4, 25.1 µM (inconclusive); on Cytochrome P450 2C19 it was 7.94 µM (inconclusive).
As to `CC(O)(CS(=O)(=O)Cc1ccccc1Cl)C(=O)Nc1cccc(C(F)(F)F)c1` (stereo not given), on Cytochrome P450 2C9, the AC50 was 11.2 µM (inconclusive).
With `COCCN=C(S)N1C2CCC1CC(NC(=O)NC13CC4CC(CC(C4)C1)C3)C2` (stereo not given), the concentration at half-maximal activity (AC50) on Cytochrome P450 2C9 is 14.1 µM (inconclusive); at Cytochrome P450 2C19, 20 µM (inconclusive).
Take `O=C(O)/C=C\c1c2ccc(=O)c(O)c-2oc2c(O)c(O)ccc12`: the values for the AC50 on Cytochrome P450 2C9 and at Cytochrome P450 2C19 were 7.94 µM (inconclusive) and 3.16 µM (inconclusive), respectively.
Take `COC(=O)C(CCSC)NC(=O)c1cccc([N+](=O)[O-])c1` (stereo not given): the AC50 on Cytochrome P450 2C9 is 2 µM (inconclusive).
On to `N#CCCn1c(=O)c(-c2cccc(C#N)c2)nc2cnc(Oc3cccc(Cl)c3)nc21`, for which, on Cytochrome P450 2C9, the AC50 was 12.6 µM (inconclusive).
As for `Cn1c(=O)cc(OCC(=O)NCc2cccnc2)c2ccccc21`, the AC50 was 14.1 µM (inconclusive) at Cytochrome P450 2C9 and 1.58 µM (inconclusive) at Cytochrome P450 1A2.
As for `CC(C(=O)c1c[nH]c2ccccc12)N1CCSCC1` (stereo not given), the AC50 on Cytochrome P450 2C9 was 31.6 µM (inconclusive).
Take `Cc1nn(C(=O)c2ccoc2C)c(N)c1-c1ccccc1`: the EC50 in the test with H4 is 21.6 µM (active); in test [1], 26.9 µM (active); in test [2], 5.93 µM (active).
For `COc1cccc(-c2csc(NC(=O)Nc3ccccc3)n2)c1`, the EC50 in test [3] was > 195 µM (not active); in the test with H4 it was 18.9 µM (active); in test [1], 11.1 µM (active); in test [2] it was > 120 µM (not active).
Regarding `N#CCCn1c(=O)c(-c2cc(F)cc(F)c2)nc2cnc(OCc3ccccc3)nc21`, the AC50 on Cytochrome P450 2C9 was 3.16 µM (inconclusive); on Cytochrome P450 3A4, 15.8 µM (inconclusive).
For `O=C(O)CCc1ccc(-c2ccc(Cl)cc2)n1CCC(=O)O`, the half-maximal activity concentration (AC50) at Cytochrome P450 2C9 was 31.6 µM (inconclusive).
Regarding `CCOC(=O)c1c(C)n[nH]c1N/N=C/c1cccnc1`, the EC50 in the test on H4 is > 120 µM (not active); in test [1] it was 14.7 µM (active); in test [2], > 120 µM (not active).
`NS(=O)(=O)c1cc2c(cc1Cl)N=C(CSCc1ccccc1)NS2(=O)=O` [BENZTHIAZIDE]: at Cytochrome P450 2C9, the AC50 is 3.98 µM (inconclusive).
Turning to `Cc1cccc(N(C)C(=S)Oc2ccc3ccccc3c2)c1` [TOLNAFTATE], the AC50 at Cytochrome P450 2C9 is 1.26 µM (inconclusive).

(Values after ChEMBL document CHEMBL1201862, “PubChem BioAssay data set” (2004).)
